Series [1] deals with Mus musculus. The experiment in a line: Analgesic activity in Swiss albino mouse assessed as inhibition of acetic acid-induced abdominal constriction at 10 mg/kg administered for 30 mins followed by acetic acid challenge measured after 30 mins relative to vehicle-treated control. The series is classed as functional. The note with it: 0.5 h.
For series [2], the system named is Mus musculus. Put plainly: Analgesic activity in Swiss albino mouse assessed as inhibition of acetic acid-induced abdominal constriction at 100 ug/kg administered for 30 mins followed by acetic acid challenge measured after 30 mins. The series is classed as functional.
Series [3] concerns Mus musculus. Put plainly: Analgesic activity in Swiss albino mouse assessed as inhibition of acetic acid-induced abdominal constriction at 10 mg/kg administered for 30 mins followed by acetic acid challenge measured after 30 mins in presence of opioid receptor antagonist naloxone. The series is classed as functional, organism-based.
Series [4] concerns THP-1. The experiment in a line: Cytotoxicity against human THP1 cells assessed as decrease in cell proliferation after 24 to 48 hrs by MTT assay. It is filed as cell-based. For orientation: Formazan colour is commonly taken as a measure of viable cells.
The subject of series [5] is THP-1. Put plainly: Antiinflammatory activity in PMA-treated human THP1 cells assessed as inhibition of LPS-induced IL-6 production after 24 hrs by ELISA. The series is classed as functional, cell-based. To be noted: THP-1, 24 h. (In general: An ELISA detects its analyte on a solid surface through an enzyme-linked reagent.)
For series [6], the system named is Mus musculus. Put plainly: Acute toxicity in Swiss albino mouse assessed as effect on liver at 2000 mg/kg after 14 days by hematoxylin and eosin staining based assay. It is filed as organism-based. The note with it: in vivo, 336 h.
In series [7] the test system is Mus musculus. Put plainly: Analgesic activity in Swiss albino mouse assessed as inhibition of acetic acid-induced abdominal constriction at 10 mg/kg administered for 30 mins followed by acetic acid challenge measured after 30 mins in presence of prostaglandin analogue misoprostol. The series is classed as functional, organism-based.
Series [8] relates to Mus musculus. Put plainly: Analgesic activity in Swiss albino mouse assessed as inhibition of formalin-induced paw flinching at 10 mg/kg administered for 30 mins followed by formalin challenge measured during 10 to 30 mins post formalin challenge in presence of opioid receptor antagonist naloxone. The series is classed as functional, organism-based.
The subject of series [9] is Mus musculus. Put plainly: Acute toxicity in Swiss albino mouse assessed as effect on myocardium at 2000 mg/kg after 14 days by hematoxylin and eosin staining based assay. The note with it: in vivo, 336 h. It is filed as organism-based.
Series [10] relates to Mus musculus. Put plainly: Analgesic activity in Swiss albino mouse assessed as inhibition of formalin-induced paw flinching at 10 mg/kg administered for 30 mins followed by formalin challenge measured during 10 to 30 mins post formalin challenge relative to vehicle-treated control. It is filed as functional.
The subject of series [11] is Mus musculus. Put plainly: Acute toxicity in Swiss albino mouse assessed as behavioral abnormality at 50 to 2000 mg/kg after 14 days. The note with it: in vivo, 336 h. The series is classed as organism-based.
Series [12] concerns THP-1. Put plainly: Antiinflammatory activity in PMA-treated human THP1 cells assessed as inhibition of LPS-induced TNF-alpha production after 24 hrs by ELISA. The series is classed as functional, cell-based. The note with it: THP-1, 24 h.
Series [13] concerns Mus musculus. Put plainly: Analgesic activity in Swiss albino mouse assessed as inhibition of formalin-induced paw flinching at 10 mg/kg administered for 30 mins followed by formalin challenge measured during first 5 mins post formalin challenge. The series is classed as functional.
For series [14], the system named is Mus musculus. The experiment in a line: Analgesic activity in Swiss albino mouse assessed as inhibition of acetic acid-induced abdominal constriction at 80 ug/kg administered for 30 mins followed by acetic acid challenge measured after 30 mins. It is filed as functional.
Series [15] concerns Mus musculus. Put plainly: Analgesic activity in Swiss albino mouse assessed as inhibition of formalin-induced paw flinching at 80 ug/kg administered for 30 mins followed by formalin challenge measured during 10 to 30 mins post formalin challenge. It is filed as functional.

What is called inhibition in vivo is how much of the control response was suppressed. A word on the IC50: it is the concentration at which inhibition is half-maximal.

Molecules are shown by their SMILES. Calls of active or inactive are those of the source. The calls are words filed in the database; no cut-off is given here.

As to `CN[C@@]1(C)c2cc(OC)ccc2OC[C@H]1CO`, the inhibition in vivo at 10 mg/kg in the series on Mus musculus [1] came out at 63.2%.

For the compound `CN[C@@]1(C)c2cc(C)ccc2OC[C@H]1CO`, the inhibition in vivo at 10 mg/kg with Mus musculus [1] is 59.3%.

`CCCC[C@](C)(O)C/C=C/[C@H]1[C@H](O)CC(=O)[C@@H]1CCCCCCC(=O)OC`: in the series with Mus musculus [2], the inhibition result is “inactive”.

For `COc1ccc2c(c1)[C@@]1(C)[C@@H](CO2)CON1C`, the inhibition result in the series on Mus musculus [3] and in the series on Mus musculus [8] was “inactive” throughout. Further, the 50% inhibitory concentration (IC50) is greater than 100 µM in the series with THP-1 [4], 1120 nM in the series on THP-1 [5] and 4.58 µM in the series with THP-1 [12]. Further, the Activity entry with Mus musculus [6], in the series with Mus musculus [9] and in the series on Mus musculus [11] was “Non-Toxic” each time. Moreover, the inhibition entry with Mus musculus [7] was “Active”. The inhibition in vivo at 10 mg/kg in the series with Mus musculus [10] stood at 68.3%; in the series on Mus musculus [1], 69.4%; with Mus musculus [13] it was 62.7%.

Regarding `Cc1ccc2c(c1)[C@@]1(C)[C@@H](CO2)CON1C`, the inhibition in vivo at 10 mg/kg with Mus musculus [1] is 68.2%.

For `COc1ccc2c(c1)c(CC(=O)O)c(C)n2C(=O)c1ccc(Cl)cc1` [INDOMETHACIN], the inhibition in vivo at 10 mg/kg is 50.6% in the series with Mus musculus [10] and 56.7% with Mus musculus [1]. Besides, the inhibition entry with Mus musculus [13] is “inactive”.

On to `C=CCN1CC[C@]23c4c5ccc(O)c4O[C@H]2C(=O)CC[C@@]3(O)[C@H]1C5`, for which the inhibition result with Mus musculus [14] and with Mus musculus [15] was “inactive” each time.

Values taken from ChEMBL document CHEMBL4004804, “Rationally designed benzopyran fused isoxazolidines and derived β2,3,3-amino alcohols as potent analgesics: Synthesis, biological evaluation and molecular docking analysis” (Eur J Med Chem, 2017).
